Measurements from patent publication US11883539B2, “Pharmaceutical compositions of berberine with EPA and DHA, and methods thereof” (SHENZHEN HIGHTIDE BIOPHARMACEUTICAL, LTD., priority 2015, dated 2024).
Like-named read-outs stand apart in the source and are kept apart here.

Assay: Single-dose pharmacokinetics study in rats (BBR•HCl, EPA-EE, BBR + EPA-EE; 3 rats per group)
Format: in vivo
Settings: male, Sprague-Dawley, rat, SD rats, single oral administration, plasma
Description: In the single-dose pharmacokinetics study in rats, after 7-day acclimation, healthy male Sprague-Dawley (SD) rats with the body weight of 210-250 g were randomized into four groups as follows (3 rats per group).
The rats in each group were orally treated with the suspensions of the corresponding testing articles indicated above in 0.5% gum tragacanth respectively. Blood samples of the test animals were collected pre-dose and at the time points of 15 min, 30 min, 1 h, 1.5 h, 2 h, 4 h, 8 h, 24 h post-dose. The collected blood samples (approximately 400 μL) were placed into tubes containing heparin sodium and centrifuged at 8,000 rpm for 6 minutes at 4° C. to separate plasma. The obtained plasma from each sample was stored at −80° C. until being analyzed.
Plasma concentrations of BBR and EPA were determined using tandem mass spectrometry (LC-MS/MS) analysis. A non-compartmental module of WinNonlin® Professional 5.2 (Pharsight; St. Louis MO), was used to calculate PK parameters. The abbreviation AUC(0-t) represents area under the curve from the time of dosing to the time of the last observation, the AUC(0-∞) represents area under the curve from the time of dosing to infinity, and the Cmax represents maximum concentration detected.

SMILES	AUC(0-t) (EPA-EE 45.48 mg/Kg (alone or + BBR•HCl 51.13 mg/Kg), read-out: EPA (Free acid) AUC(0-t)) [ng·h/mL]	AUC(0-inf) (EPA-EE 45.48 mg/Kg (alone or + BBR•HCl 51.13 mg/Kg), read-out: EPA (Free acid) AUC(0-∞)) [ng·h/mL]	Cmax (EPA-EE 45.48 mg/Kg (alone or + BBR•HCl 51.13 mg/Kg), read-out: EPA (Free acid) Cmax) [ng/mL]	AUC(0-t) (BBR•HCl 51.13 mg/Kg (alone or + EPA-EE 45.48 mg/Kg), read-out: BBR AUC(0-t)) [ng·h/mL]	AUC(0-inf) (BBR•HCl 51.13 mg/Kg (alone or + EPA-EE 45.48 mg/Kg), read-out: BBR AUC(0-∞)) [ng·h/mL]	Cmax (BBR•HCl 51.13 mg/Kg (alone or + EPA-EE 45.48 mg/Kg), read-out: BBR Cmax) [ng/mL]
CCC=CCC=CCC=CCC=CCC=CCCCC(=O)O (stereo in doubt) [EPA, (5Z,8Z,11Z,14Z,17Z)-5,8,11,14,17-icosapentaenoic acid]	3750	6600	629			
COc1ccc2cc3[n+](cc2c1OC)CCc1cc2c(cc1-3)OCO2 [BBR, 5,6-dihydro-9,10-dimethoxybenzo[g]-1,3-benzodioxolo[5,6-a]quinolizinium]				7.46	8.84	0.95
